# Assay results: publication PMC5736709, “Unravelling the specificity and mechanism of sialic acid recognition by the gut symbiont Ruminococcus gnavus” (Nature Communications, 2017)
# pKd: −log10 of the molar value. Entries after “also recorded” stand apart in the source; their conditions may differ.
# Assays:
# [1] = tested on: RgCBM40 binding to LS174T MUC2; test: ELISA of RgCBM40 binding to LS174T MUC2 in competition with sugars; design: species or system Ruminococcus gnavus ATCC 29149; details: RgCBM40 preincubated with 1 mM free sugar overnight at 4 °C; immobilised LS174T MUC2; A450
# Protocol: RgCBM40 binding to purified mucins was tested by ELISA. Mucins (100 μl of 10 μg ml^−1) were immobilised onto a high binding 96 well plate (Greiner, Stonehouse, UK) overnight at 4 °C. All subsequent steps were carried out for 1 h at room temperature. The plates were blocked with 3% (w/v) BSA, incubated with RgCBM40 (500 μg ml^−1), followed by an incubation with 1:5000 anti-RgNanH (raised in rabbit, Biogenes) then with 1:5000 anti-rabbit secondary antibody (raised in donkey) conjugated to peroxidase (GE Healthcare). Between each step, the plate was washed with 3 × 300 μl of PBS containing 0.05% (v/v) Tween 20 (PBST). Prior to detection, an additional wash step and 30 s incubation with PBST was carried out. Binding was detected using tetramethylbenzidine (TMB) visualisation solution (Biolegend, San Diego, CA, USA) which was incubated for 15 min. The reaction was stopped by addition of 2 M H2SO4 and absorbance measured at 450 nm using a plate-reader (Bench Marl Plus, Biorad), subtracting background readings at 570 nm. Negative controls including no RgCBM40 (subtracted from A450 value), no primary or no secondary antibody were carried out in parallel. For comparison between plates, values were normalised to the reading for LS174T MUC2 which was arbitrarily set at 100%. For enzymatic treatment of the mucin, LS174T MUC2 (2 mg ml^−1) was incubated with sialidases (2 µg ml^−1) overnight at 4 °C on a rotary wheel prior to immobilisation on the plate. For chemical treatment of mucin, LS174T MUC2 was incubated with 0.1 M trifluoroacetic acid (TFA) at 80 °C for 1 h, dialysed against ammonium bicarbonate (50 mM), lyophilised and redissolved in H2O. For the competition assays, RgCBM40 was incubated with 1 mM of free sugar overnight at 4 °C on a rotary wheel prior to addition to the ELISA plate as above. Experiments were carried out in triplicate.
# RgCBM40 = RgCBM40 (Mediterraneibacter gnavus (Ruminococcus gnavus), UniProt A7B557); test: STD NMR of sialoglycans with RgCBM40 WT; design: species or system Ruminococcus gnavus ATCC 29149; details: 1 mM sialoglycan, 50 μM RgCBM40 WT, 288 K; 'exception' = monosaccharides for which binding was not detected
# Protocol: (§1) ^1H and ^13C resonance assignment for all the sugars was performed on the bases of 1D ^1H, 2D DQF-COSY, TOCSY, HSQC and NOESY experiments run on the free ligands in unbuffered D2O, pH 7.0. For STD NMR experiments, all the samples consisted of 1 mM sialoglycans and 50 μM RgCBM40 (WT or I95A mutant) in D2O buffer solution of 10 mM Tris-d11 pH 7.8 and 100 mM NaCl (ligand: protein ratio 20:1). An STD pulse sequence that included 2.5 ms and 5 ms trim pulses and a 3 ms spoil gradient was used. Saturation was achieved applying a train of 50 ms Gaussian pulses (0.40 mW) on the f2 channel, at 0.60 p.p.m. (on-resonance experiments) and 40 p.p.m. (off-resonance experiments). The broad protein signals were removed using a 40 ms spinlock (T1ρ) filter. All the experiments were recorded at ^1H frequency of 800.23 MHz on a Bruker Avance III spectrometer equipped with a 5 mm probe TXI 800 MHz H-C/N-D-05 Z BTO, at 288 K. For all the sialoglycans in the presence of RgCBM40, an STD experiment with a saturation time of 2 s and a relaxation delay of 5 s was performed, as a first test for binding. For the confirmed binders, the STD NMR experiments were carried out at different saturation times (0.5, 1, 2, 3, 4 and 5 s) with 1 K scans and relaxation delay of 5 s, in order to obtain the binding epitope mapping. The resulting build-up curves for each proton were fitted mathematically to a mono-exponential equation (y = a×[1-exp(b×x)]), from which the initial slopes (a×b) were obtained. For each ligand, the binding epitope mapping was obtained by dividing the initial slopes by the one of the H7 proton of the corresponding sialic acid ring, to which an arbitrary value of 100% was assigned. This normalisation of the STD values allows the comparison across all the sialoglycans.
# RgCBM40 R204A = biological target: T1, RgCBM40 R204A (Mediterraneibacter gnavus (Ruminococcus gnavus), UniProt A7B557, R204A); test: ITC of sialoglycans binding to RgCBM40 mutant R204A; design: species or system Ruminococcus gnavus ATCC 29149; details: for pKd: ITC
# T1 sequence (A7B557 50-237 R204A): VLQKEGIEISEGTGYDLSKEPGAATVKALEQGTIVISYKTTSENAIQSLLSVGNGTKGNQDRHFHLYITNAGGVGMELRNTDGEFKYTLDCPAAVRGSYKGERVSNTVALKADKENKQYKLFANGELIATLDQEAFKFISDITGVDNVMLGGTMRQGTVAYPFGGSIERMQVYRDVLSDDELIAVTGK
# Protocol: (§2) Site directed mutagenesis of RgGH33 to introduce the D282A mutation in the active site was carried out using the QuikChange kit, following the manufacturer’s instructions, Agilent (Santa Clara, CA, USA). Site-directed mutants of RgCBM40; I95A, Y116A, E126A, R128A, R204A and double mutant R128A/R204A, were obtained from NZyTech (Lisbon, Portugal). The primers are listed in Supplementary Table 4. The integrity of the RgGH33 and RgCBM40 mutants was checked by circular dichroism (CD).
# (§3) Isothermal titration calorimetry (ITC) experiments were performed using the PEAQ-ITC system (Malvern, Malvern, UK) with a cell volume of 200 µl. Prior to titration protein samples were exhaustively dialysed into PBS. The ligand was dissolved in the dialysis buffer. The cell protein concentration was 115 µM (except for mutant I95A where it was 173 µM and the wild-type interaction with 6′SL where it was 230 µM) and the syringe ligand concentration was 10 mM (25 mM for Neu5Ac). Controls with titrant (sugar) injected into buffer only were subtracted from the data. Analysis was performed using Malvern software, using a single-binding site model. The stoichiometry of binding sites was set to 1.0 as this was evident from the crystal structure. Quantitative and most qualitative experiments were carried out in triplicate.
# RgCBM40 I95A = biological target: T2, RgCBM40 I95A (Mediterraneibacter gnavus (Ruminococcus gnavus), UniProt A7B557, I95A); test: STD NMR of sialoglycans with RgCBM40 I95A mutant; format: binding, Ruminococcus gnavus ATCC 29149; details: 1 mM sialoglycan, 50 μM RgCBM40 I95A
# T2 sequence (A7B557 50-237 I95A): T1 sequence (A7B557 50-237 R204A)
# Protocol: as §1, with “The resulting build-up curves for each proton were fitted mathematically to a mono-exponential equation (y = a×[1-exp(b×x)]), from which the initial slopes (a×b) were obtained. For each ligand, the binding epitope mapping was obtained by dividing the initial slopes by the one of the H7 proton of the corresponding sialic acid ring, to which an arbitrary value of 100% was assigned. This normalisation of the STD values allows the comparison across all the sialoglycans.” left out
# RgCBM40 E126A = biological target: T3, RgCBM40 E126A (Mediterraneibacter gnavus (Ruminococcus gnavus), UniProt A7B557, E126A); test: ITC of sialoglycans binding to RgCBM40 mutant E126A; design: species or system Ruminococcus gnavus ATCC 29149; details: for pKd: ITC
# T3 sequence (A7B557 50-237 E126A): T1 sequence (A7B557 50-237 R204A)
# Protocol: as §2, §3
# RgCBM40 R128A/R204A = biological target: T4, RgCBM40 R128A/R204A (Mediterraneibacter gnavus (Ruminococcus gnavus), UniProt A7B557, R128A/R204A); test: ITC of sialoglycans binding to RgCBM40 double mutant R128A/R204A; design: species or system Ruminococcus gnavus ATCC 29149; details: for pKd: ITC
# T4 sequence (A7B557 50-237 R128A/R204A): T1 sequence (A7B557 50-237 R204A)
# Protocol: as §2, §3
smiles,measurement,setting,value
"CC(=O)N[C@H]1[C@H]([C@H](O)[C@H](O)CO)O[C@@](O[C@H]2[C@@H](O)[C@@H](CO)O[C@@H](O[C@H]3[C@H](O)[C@@H](O)C(O)O[C@@H]3CO)[C@@H]2O)(C(=O)O)C[C@@H]1O (stereo partly drawn) [3′SL, α2-3 sialyllactose]",Effect of free sugar on adherence of RgCBM40 to MUC2,[1],significantly decreased
same,Binding to RgCBM40 detected by STD NMR,RgCBM40,detected
same,Binding by ITC (in words),RgCBM40 R204A,abolished; also recorded: loss of binding
same,pKd,RgCBM40 R204A,< 1.60
same,Binding to I95A by STD-NMR,RgCBM40 I95A,confirmed
same,Binding by ITC (in words),RgCBM40 E126A,abolished
same,pKd,RgCBM40 E126A,< 1.60
same,Binding by ITC (in words),RgCBM40 R128A/R204A,abolished; also recorded: loss of binding
same,pKd,RgCBM40 R128A/R204A,< 1.60
"CC(=O)N[C@H]1[C@H]([C@H](O)[C@H](O)CO)O[C@@](OC[C@H]2O[C@@H](O[C@H]3[C@H](O)[C@@H](O)C(O)O[C@@H]3CO)[C@H](O)[C@@H](O)[C@H]2O)(C(=O)O)C[C@@H]1O (stereo partly drawn) [6′SL, α2,6-sialyllactose]",Effect of free sugar on adherence of RgCBM40 to MUC2,[1],significantly decreased
same,Binding to RgCBM40 detected by STD NMR,RgCBM40,detected
same,Binding by ITC (in words),RgCBM40 R204A,abolished
same,pKd,RgCBM40 R204A,< 1.60
same,Binding to I95A by STD-NMR,RgCBM40 I95A,confirmed
same,Binding by ITC (in words),RgCBM40 E126A,abolished
same,pKd,RgCBM40 E126A,< 1.60
same,Binding by ITC (in words),RgCBM40 R128A/R204A,abolished
same,pKd,RgCBM40 R128A/R204A,< 1.60
